Columns and labels:
[1] = tested on: K1 strain, a drug resistant strain of Plasmodium falciparum; assay: In vitro antimalarial assay (p-LDH, Malstat), K1 strain; assay type: cell-based; settings: P. falciparum K1 (drug resistant), 72 h culture, p-LDH readout, read-out: Antimalarial activity (IC50 value), Strain K1
Procedure, shortened: (§1)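 IC50 derived from concentration-response of parasite lactate dehydrogenase signal (Malstat reagent, NBT/PES formazan at 655 nm) after freeze-thaw lysis. Infected erythrocytes (hematocrit 2%, parasitaemia 0.5 or 1%) exposed 72 h to 12.5–0.0001 μM final compound under 3% O2-4% CO2-93% N2, FCR3 and K1 alike.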

[2] = tested on: FCR3 strain, a drug sensitive strain of Plasmodium falciparum; assay: In vitro antimalarial assay (p-LDH, Malstat), FCR3 strain; assay type: cell-based; settings: P. falciparum FCR3 (drug sensitive), 72 h culture, p-LDH readout, read-out: Antimalarial activity (IC50 value), Strain FCR3
Procedure, shortened: as §1

Row | IC50 [1] | IC50 [2] | Structure (SMILES)
1 | 100 to 1000 nM | 100 to 1000 nM | c1cn2ccc(Nc3cc(N4CCOCC4)nc(Nc4ccc(OC5CCOCC5)nc4)n3)cc2n1 [Example 82, N4-(imidazo[1,2-a]pyridin-7-yl)-6-morpholino-N2-(6-((tetrahydro-2H-pyran-4-yl)oxy)pyridin-3-yl)pyrimidine-2,4-diamine]
2 | 1000 to 10000 nM | 100 to 1000 nM | Cc1ccc(Nc2nc(Nc3ccn4ccnc4c3)cc(N(C)C)n2)cn1 [Example 83, N4-(imidazo[1,2-a]pyridin-7-yl)-N6,N6-dimethyl-N2-(6-methylpyridin-3-yl)pyrimidine-2,4,6-triamine]
3 | < 100 nM | < 100 nM | Cc1cc(C)nc(Nc2nc(Nc3ccn4ccnc4c3)cc(N(C)C)n2)c1 [Example 84, N2-(4,6-dimethylpyridin-2-yl)-N4-(imidazo[1,2-a]pyridin-7-yl)-N6,N6-dimethylpyrimidine-2,4,6-triamine]
4 | 1000 to 10000 nM | 1000 to 10000 nM | Cc1ccc(Nc2nc(N)cc(Nc3ccn4ccnc4c3)n2)cn1 [Example 85, N4-(imidazo[1,2-a]pyridin-7-yl)-N2-(6-methylpyridin-3-yl) pyrimidine-2,4,6-triamine]
5 | 100 to 1000 nM | 100 to 1000 nM | COc1cc(Nc2ccn3ccnc3c2)nc(Nc2cc(C)cc(C)n2)n1 [Example 86, N2-(4,6-dimethylpyridin-2-yl)-N4-(imidazo[1,2-a]pyridin-7-yl)-6-methoxypyrimidine-2,4-diamine]
6 | < 100 nM | < 100 nM | Cc1ccc(Nc2nc(Nc3ccn4ccnc4c3)cc(N3CCOCC3)n2)nc1C [Example 87, N2-(5,6-dimethylpyridin-2-yl)-N4-(imidazo[1,2-a]pyridin-7-yl)-6-morpholinopyrimidine-2,4-diamine]
7 | < 100 nM | < 100 nM | Cc1ccc(Nc2nc(Nc3ccn4ccnc4c3)cc(N3CCCCC3)n2)nc1C [Example 88, N2-(5,6-dimethylpyridin-2-yl)-N4-(imidazo[1,2-a]pyridin-7-yl)-6-(piperidin-1-yl)pyrimidine-2,4-diamine]
8 | 100 to 1000 nM | < 100 nM | CN1CCC(Oc2ccc(Nc3nc(Nc4ccn5ccnc5c4)cc(N4CCOCC4)n3)cn2)CC1 [Example 89, N4-(imidazo[1,2-a]pyridin-7-yl)-N2-(6-((1-methylpiperidin-4-yl)oxy)pyridin-3-yl)-6-morpholinopyrimidine-2,4-diamine]
9 | 100 to 1000 nM | < 100 nM | c1ccc(Oc2ccc(Nc3nc(Nc4ccn5ccnc5c4)cc(N4CCOCC4)n3)cn2)cc1 [Example 90, N4-(imidazo[1,2-a]pyridin-7-yl)-6-morpholino-N2-(6-phenoxypyridin-3-yl)pyrimidine-2,4-diamine]
10 | 100 to 1000 nM | < 100 nM | c1ccc(COc2ccc(Nc3nc(Nc4ccn5ccnc5c4)cc(N4CCOCC4)n3)cn2)cc1 [Example 91, N2-(6-(benzyloxy)pyridin-3-yl)-N4-(imidazo[1,2-a]pyridin-7-yl)-6-morpholinopyrimidine-2,4-diamine]
11 | < 100 nM | < 100 nM | CCc1ccnc(Nc2nc(Nc3ccn4ccnc4c3)cc(N3CCCCCC3)n2)c1 [Example 92, 6-(azepan-1-yl)-N2-(4-ethylpyridin-2-yl)-N4-(imidazo[1,2-a]pyridin-7-yl)pyrimidine-2,4-diamine]
12 | < 100 nM | < 100 nM | CCc1cccc(Nc2nc(Nc3ccn4ccnc4c3)cc(N3CCCCC3)n2)n1 [Example 95, N2-(6-ethylpyridin-2-yl)-N4-(imidazo[1,2-a]pyridin-7-yl)-6-(piperidin-1-yl)pyrimidine-2,4-diamine]
13 | 100 to 1000 nM | 100 to 1000 nM | c1cc(Nc2nc(Nc3ccn4ccnc4c3)cc(N3CCCCC3)n2)nc(C2CC2)c1 [Example 96, N2-(6-cyclopropylpyridin-2-yl)-N4-(imidazo[1,2-a]pyridin-7-yl)-6-(piperidin-1-yl)pyrimidine-2,4-diamine]
14 | 100 to 1000 nM | 100 to 1000 nM | CCc1ccnc(Nc2nc(Nc3ccn4ccnc4c3)cc(N3CCN[C@@H](C)C3)n2)c1 [Example 97, (S)-N2-(4-ethylpyridin-2-yl)-N4-(imidazo[1,2-a]pyridin-7-yl)-6-(3-methylpiperazin-1-yl)pyrimidine-2,4-diamine]
15 | 100 to 1000 nM | 100 to 1000 nM | CCc1ccnc(Nc2nc(Nc3ccn4ccnc4c3)cc(N3CCC(C)CC3)n2)c1 [Example 98, N2-(4-ethylpyridin-2-yl)-N4-(imidazo[1,2-a]pyridin-7-yl)-6-(4-methylpiperidin-1-yl)pyrimidine-2,4-diamine]
16 | 100 to 1000 nM | 100 to 1000 nM | CCc1ccnc(Nc2nc(Nc3ccn4ccnc4c3)cc(N3CCC(C)(C)CC3)n2)c1 [Example 99, 6-(4,4-dimethylpiperidin-1-yl)-N2-(4-ethylpyridin-2-yl)-N4-(imidazo[1,2-a]pyridin-7-yl)pyrimidine-2,4-diamine]

Row | IC50 [1] | IC50 [2] | Structure (SMILES)
17 | 100 to 1000 nM | 100 to 1000 nM | CCc1ccnc(Nc2nc(Nc3ccn4ccnc4c3)cc(N3CCN(C(=O)OC(C)(C)C)[C@H](C)C3)n2)c1 [Example 100, (R)-tert-butyl 4-(2-((4-ethylpyridin-2-yl)amino)-6-(imidazo[1,2-a]pyridin-7-ylamino)pyrimidin-4-yl)-2-methylpiperazine-1-carboxylate]
18 | 1000 to 10000 nM | 100 to 1000 nM | CCc1ccnc(Nc2nc(Nc3ccn4ccnc4c3)cc(N3CCN(C)[C@@H](C)C3)n2)c1 [Example 101, (S)-6-(3,4-dimethylpiperazin-1-yl)-N2-(4-ethylpyridin-2-yl)-N4-(imidazo[1,2-a]pyridin-7-yl)pyrimidine-2,4-diamine]
19 | 100 to 1000 nM | 100 to 1000 nM | CCc1ccnc(Nc2nc(Nc3ccn4ccnc4c3)cc(N3CCN[C@H](C)C3)n2)c1 [Example 102, (R)-N2-(4-ethylpyridin-2-yl)-N4-(imidazo[1,2-a]pyridin-7-yl)-6-(3-methylpiperazin-1-yl)pyrimidine-2,4-diamine]
20 | 100 to 1000 nM | 100 to 1000 nM | CCc1ccnc(Nc2nc(Nc3ccn4ccnc4c3)cc(N3CCN(C(=O)OC(C)(C)C)[C@@H](C)C3)n2)c1 [Example 103, (S)-tert-butyl 4-(2-((4-ethylpyridin-2-yl)amino)-6-(imidazo[1,2-a]pyridin-7-ylamino)pyrimidin-4-yl)-2-methylpiperazine-1-carboxylate]
21 | 1000 to 10000 nM | 100 to 1000 nM | CCc1ccnc(Nc2nc(Nc3ccn4ccnc4c3)cc(N3CCN(C)[C@H](C)C3)n2)c1 [Example 104, (R)-6-(3,4-dimethylpiperazin-1-yl)-N2-(4-ethylpyridin-2yl)-N4-(imidazo[1,2-a]pyridin-7-yl)pyrimidine-2,4-diamine]
22 | < 100 nM | < 100 nM | CCc1cccc(Nc2nc(Nc3ccn4ccnc4c3)cc(N3CCOCC3)n2)n1 [Example 107, N2-(6-ethylpyridin-2-yl)-N4-(imidazo[1,2-a]pyridin-7-yl)-6-morpholinopyrimidine-2,4-diamine]
23 | 100 to 1000 nM | < 100 nM | CCCc1cccc(Nc2nc(Nc3ccn4ccnc4c3)cc(N3CCOCC3)n2)n1 [Example 108, N4-(imidazo[1,2-a]pyridin-7-yl)-6-morpholino-N2-(6-propylpyridin-2-yl)pyrimidine-2,4-diamine]
24 | < 100 nM | < 100 nM | CCCCc1cccc(Nc2nc(Nc3ccn4ccnc4c3)cc(N3CCOCC3)n2)n1 [Example 109, N2-(6-butylpyridin-2-yl)-N4-(imidazo[1,2-a]pyridin-7-yl)-6-morpholinopyrimidine-2,4-diamine]
25 | 100 to 1000 nM | < 100 nM | c1cc(Nc2nc(Nc3ccn4ccnc4c3)cc(N3CCOCC3)n2)nc(C2CC2)c1 [Example 110, N2-(6-cyclopropylpyridin-2-yl)-N4-(imidazo[1,2-a]pyridin-7-yl)-6-morpholinopyrimidine-2,4-diamine]
26 | < 100 nM | < 100 nM | CCc1ccnc(Nc2nc(Nc3ccn4ccnc4c3)cc(N3CCC(O)CC3)n2)c1 [Example 111, 1-(2-((4-ethylpyridin-2-yl)amino)-6-(imidazo[1,2-a]pyridin-7-ylamino)pyrimidin-4-yl)piperidin-4-ol]
27 | < 100 nM | < 100 nM | CCc1ccnc(Nc2nc(Nc3ccn4ccnc4c3)cc(N3CCC(N4CCOCC4)CC3)n2)c1 [Example 112, N2-(4-ethylpyridin-2-yl)-N4-(imidazo[1,2-a]pyridin-7-yl)-6-(4-morpholinopiperidin-1-yl)pyrimidine-2,4-diamine]
28 | < 100 nM | < 100 nM | CCc1ccnc(Nc2nc(Nc3ccn4ccnc4c3)cc(N3CCC(N4CCCCC4)CC3)n2)c1 [Example 113, 6-([1,4′-bipiperidin]-1′-yl)-N2-(4-ethylpyridin-2-yl)-N4-(imidazo[1,2-a]pyridin-7-yl)pyrimidine-2,4-diamine]
29 | < 100 nM | < 100 nM | CCc1ccnc(Nc2nc(Nc3ccn4ccnc4c3)cc(N3CC(O)C3)n2)c1 [Example 115, 1-(2-((4-ethylpyridin-2-yl)amino)-6-(imidazo[1,2-a]pyridin-7-ylamino)pyrimidin-4-yl)azetidin-3-ol]
30 | < 100 nM | < 100 nM | CCc1ccnc(Nc2nc(Nc3ccn4ccnc4c3)cc(N3CC[C@@H](O)C3)n2)c1 [Example 116, (R)-1-(2-((4-ethylpyridin-2-yl)amino)-6-(imidazo[1,2-a]pyridin-7-ylamino)pyrimidin-4-yl)pyrrolidin-3-ol]
31 | < 100 nM | < 100 nM | CCc1ccnc(Nc2nc(Nc3ccn4ccnc4c3)cc(N3CC[C@H](O)C3)n2)c1 [Example 117, (S)-1-(2-((4-ethylpyridin-2-yl)amino)-6-(imidazo[1,2-a]pyridin-7-ylamino)pyrimidin-4-yl)pyrrolidin-3-ol]
